Measured values reported in patent US8859615B2, “Compounds, compositions and methods for reducing toxicity and treating or preventing diseases” (priority 2008, dated 2014).
Several values for one entry are separate records, joined by “and”; a condition that tells them apart may be missing. Equal entries are not always repeated.

System: human colon carcinoma HCT-116 xenografts
Assay: Compound D with Iso-Oxazole-Fludelone or Isodehydelone in nude mice bearing HCT-116 xenografts
Conditions: mouse, in vivo

With “iso-oxazole-fludelone (17-isooxazole-fludelone) [Iso-Flu]” as the substance, how does the “complete remission (CR)” value read?
The value was 6/6 and 1/6.
